According to ChEMBL document CHEMBL5113398, “Design and synthesis of new quinoline derivatives as selective C-RAF kinase inhibitors with potent anticancer activity” (Eur J Med Chem, 2022):
Values after ≈ are worked out from the molar mass of the structure shown. One block for each compound: values may come before it.

Legend:
[1] = Apparent permeability across apical to basolateral side in human Caco-2 cells assessed as drug recovery at pH 6.5 to 7.4; format: ADME, cell-based; conditions: Caco-2, pH 6.5, read-out: Drug recovery
[2] = Aqueous solubility of compound by HPLC analysis; format: physicochemical
[3] = tested on: SW-620; assay: Anticancer activity against human SW-620 cells assessed as cell growth inhibition incubated for 48 hrs by SRB assay; format: functional
[4] = tested on: TK-10; assay: Anticancer activity against human TK-10 cells assessed as cell growth inhibition incubated for 48 hrs by SRB assay; format: functional
[5] = tested on: IGROV-1; assay: Anticancer activity against human IGROV-1 cells assessed as cell growth inhibition incubated for 48 hrs by SRB assay; format: functional
[6] = tested on: M14; assay: Anticancer activity against human M14 cells assessed as cell growth inhibition incubated for 48 hrs by SRB assay; format: functional
[7] = tested on: EKVX; assay: Anticancer activity against human EKVX cells assessed as cell growth inhibition incubated for 48 hrs by SRB assay; format: functional
[8] = tested on: UACC-257; assay: Anticancer activity against human UACC-257 cells assessed as total cell growth inhibition incubated for 48 hrs by SRB assay; format: functional
[9] = tested on: SK-MEL-28; assay: Anticancer activity against human SK-MEL-28 cells assessed as cell growth inhibition incubated for 48 hrs by SRB assay; format: functional
[10] = n-Octanol/PBS partition coefficient, logD of the compound at pH 7.4; format: physicochemical
[11] = tested on: ACHN; assay: Anticancer activity against human ACHN cells assessed as cell growth inhibition incubated for 48 hrs by SRB assay; format: functional
[12] = tested on: MOLT-4; assay: Anticancer activity against human MOLT-4 cells assessed as total cell growth inhibition incubated for 48 hrs by SRB assay; format: functional
[13] = tested on: PC-3; assay: Anticancer activity against human PC-3 cells assessed as cell growth inhibition incubated for 48 hrs by SRB assay; format: functional
[14] = tested on: U-251; assay: Anticancer activity against human U-251 cells assessed as cell growth inhibition incubated for 48 hrs by SRB assay; format: functional
[15] = tested on: ACHN; assay: Anticancer activity against human ACHN cells assessed as total cell growth inhibition incubated for 48 hrs by SRB assay; format: functional
[16] = tested on: UO-31; assay: Anticancer activity against human UO-31 cells assessed as cell growth inhibition incubated for 48 hrs by SRB assay; format: functional
[17] = tested on: NCI-H23; assay: Anticancer activity against human NCI-H23 cells assessed as cell growth inhibition incubated for 48 hrs by SRB assay; format: functional
[18] = tested on: HL-60; assay: Anticancer activity against human HL-60 cells assessed as total cell growth inhibition incubated for 48 hrs by SRB assay; format: functional
[19] = tested on: SF-268; assay: Anticancer activity against human SF-268 cells assessed as cell growth inhibition incubated for 48 hrs by SRB assay; format: functional
[20] = tested on: NCI-H23; assay: Anticancer activity against human NCI-H23 cells assessed as total cell growth inhibition incubated for 48 hrs by SRB assay; format: functional
[21] = tested on: NCI-H460; assay: Anticancer activity against human NCI-H460 cells assessed as cell growth inhibition incubated for 48 hrs by SRB assay; format: functional
[22] = tested on: MDA-MB-468; assay: Anticancer activity against human MDA-MB-468 cells assessed as cell growth inhibition incubated for 48 hrs by SRB assay; format: functional
[23] = tested on: A498; assay: Anticancer activity against human A498 cells assessed as cell growth inhibition incubated for 48 hrs by SRB assay; format: functional
[24] = tested on: HOP-92; assay: Anticancer activity against human HOP-92 cells assessed as total cell growth inhibition incubated for 48 hrs by SRB assay; format: functional
[25] = tested on: SK-MEL-2; assay: Anticancer activity against human SK-MEL-2 cells assessed as cell growth inhibition incubated for 48 hrs by SRB assay; format: functional
[26] = tested on: MDA-MB-468; assay: Anticancer activity against human MDA-MB-468 cells assessed as total cell growth inhibition incubated for 48 hrs by SRB assay; format: functional
[27] = tested on: COLO 205; assay: Anticancer activity against human COLO 205 cells assessed as cell growth inhibition incubated for 48 hrs by SRB assay; format: functional
[28] = tested on: SN12C; assay: Anticancer activity against human SN12C cells assessed as cell growth inhibition incubated for 48 hrs by SRB assay; format: functional
[29] = tested on: NCI-H522; assay: Anticancer activity against human NCI-H522 cells assessed as cell growth inhibition incubated for 48 hrs by SRB assay; format: functional
[30] = tested on: SK-OV-3; assay: Anticancer activity against human SK-OV-3 cells assessed as cell growth inhibition incubated for 48 hrs by SRB assay; format: functional
[31] = tested on: MCF7; assay: Anticancer activity against human MCF7 cells assessed as cell growth inhibition incubated for 48 hrs by SRB assay; format: functional
[32] = tested on: HT-29; assay: Anticancer activity against human HT-29 cells assessed as cell growth inhibition incubated for 48 hrs by SRB assay; format: functional
[33] = tested on: Malme-3M; assay: Anticancer activity against human Malme-3M cells assessed as cell growth inhibition incubated for 48 hrs by SRB assay; format: functional
[34] = tested on: MDA-MB-231; assay: Anticancer activity against human MDA-MB-231 cells assessed as cell growth inhibition incubated for 48 hrs by SRB assay; format: functional
[35] = tested on: CCRF-CEM; assay: Anticancer activity against human CCRF-CEM cells assessed as cell growth inhibition incubated for 48 hrs by SRB assay; format: functional
[36] = Cytotoxicity against human WI-38 cells assessed as cell growth inhibition incubated for 48 hrs by SRB assay; format: toxicity, cell-based
[37] = tested on: NCI-H226; assay: Anticancer activity against human NCI-H226 cells assessed as cell growth inhibition incubated for 48 hrs by SRB assay; format: functional
[38] = tested on: IGROV-1; assay: Anticancer activity against human IGROV-1 cells assessed as total cell growth inhibition incubated for 48 hrs by SRB assay; format: functional
[39] = tested on: UACC-257; assay: Anticancer activity against human UACC-257 cells assessed as cell growth inhibition incubated for 48 hrs by SRB assay; format: functional
[40] = tested on: NCI-H322M; assay: Anticancer activity against human NCI-H322M cells assessed as cell growth inhibition incubated for 48 hrs by SRB assay; format: functional
[41] = tested on: HOP-62; assay: Anticancer activity against human HOP-62 cells assessed as cell growth inhibition incubated for 48 hrs by SRB assay; format: functional
[42] = tested on: HCT-15; assay: Anticancer activity against human HCT-15 cells assessed as cell growth inhibition incubated for 48 hrs by SRB assay; format: functional
[43] = Apparent permeability of the compound from apical to basolateral side in human Caco-2 cells at pH 6.5 to 7.4; format: ADME, cell-based; conditions: Caco-2, pH 6.5
[44] = tested on: NCI/ADR-RES; assay: Anticancer activity against human NCI/ADR-RES cells assessed as cell growth inhibition incubated for 48 hrs by SRB assay; format: functional
[45] = tested on: TK-10; assay: Anticancer activity against human TK-10 cells assessed as total cell growth inhibition incubated for 48 hrs by SRB assay; format: functional

solubility [2]: 93.1 µM (≈ 23.5 µg/mL)
SMILES: O=C1NC(=O)C(c2ccccc2)(c2ccccc2)N1 [PHENYTOIN]

GI50 [3]: 2510 nM | solubility [2]: 3.27 µM (≈ 1.52 µg/mL) | GI50 [9]: 2510 nM | logD [10]: 3.85 | GI50 [11]: 2510 nM | GI50 [13]: 2000 nM | GI50 [14]: 2000 nM | GI50 [17]: 2000 nM | GI50 [21]: 2510 nM | GI50 [22]: 3160 nM | GI50 [25]: 2000 nM | GI50 [27]: 2000 nM | GI50 [29]: 2000 nM | GI50 [30]: 2510 nM | GI50 [31]: 2510 nM | GI50 [32]: 2000 nM | GI50 [34]: 1260 nM | GI50 [35]: 2000 nM | GI50 [37]: 2000 nM | GI50 [40]: 2510 nM | GI50 [42]: 2510 nM | Papp A→B [43]: 16.4 ×10⁻⁶ cm/s
SMILES: CNC(=O)c1cc(Oc2ccc(NC(=O)Nc3ccc(Cl)c(C(F)(F)F)c3)cc2)ccn1 [SORAFENIB]
GI50 [4]: 3980 nM | GI50 [5]: 2510 nM | GI50 [6]: 2000 nM | GI50 [7]: 2510 nM | TGI [8]: 5010 nM | TGI [12]: 100000 nM | TGI [15]: 10000 nM | GI50 [16]: 2510 nM | TGI [18]: 100000 nM | GI50 [19]: 2510 nM | TGI [20]: 5010 nM | GI50 [23]: 2510 nM | TGI [24]: 5010 nM | TGI [26]: 7940 nM | GI50 [28]: 2510 nM | GI50 [33]: 2000 nM | GI50 at 48 h [36]: > 20000 nM | TGI [38]: 10000 nM | GI50 [39]: 2000 nM | GI50 [41]: 2000 nM | GI50 [44]: 2510 nM | TGI [45]: 10000 nM

recovery [1]: 91% | Papp A→B [43]: 72 ×10⁻⁶ cm/s
SMILES: CC(CCc1ccccc1)NCC(O)c1ccc(O)c(C(N)=O)c1 (stereo unspecified) [LABETALOL]

Further lines, the compound ahead of its results:

SMILES: CNC(=C[N+](=O)[O-])NCCSCc1ccc(CN(C)C)o1 [RANITIDINE]
recovery [1]: 82%

SMILES: CO[C@H]1/C=C/O[C@@]2(C)Oc3c(C)c(O)c4c(O)c(c(/C=N/N5CCN(C)CC5)c(O)c4c3C2=O)NC(=O)/C(C)=C\C=C\[C@H](C)[C@H](O)[C@@H](C)[C@@H](O)[C@@H](C)[C@H](OC(C)=O)[C@@H]1C [RIFAMPIN]
solubility [2]: 175 µM (≈ 144 µg/mL) | logD [10]: 1.31

SMILES: COc1cc2cc(Oc3ccc(NC(=O)Nc4ccc(Cl)c(C(F)(F)F)c4)cc3)c(C)nc2cc1OCCN(C)C
solubility [2]: 114 µM (≈ 66.9 µg/mL)

SMILES: COc1cc2c(c(OC)c1OC)-c1ccc(OC)c(=O)cc1[C@@H](NC(C)=O)CC2 [COLCHICINE]
recovery [1]: 75.5% | Papp A→B [43]: 0.3 ×10⁻⁶ cm/s

SMILES: CCC(C)(C)C(=O)O[C@H]1C[C@@H](C)C=C2C=C[C@H](C)[C@H](CC[C@@H]3C[C@@H](O)CC(=O)O3)[C@H]21 [SIMVASTATIN]
logD [10]: 4.45

SMILES: COc1cc2cc(Oc3ccc(NC(=O)Nc4cc(C(F)(F)F)cc(C(F)(F)F)c4)cc3)c(C)nc2cc1OC
solubility [2]: 212 µM (≈ 120 µg/mL) | logD [10]: 3.1
